According to patent US20230391881A1, “COMPOSITIONS AND METHODS FOR OVERCOMING DR5-INDUCED IMMUNE EVASION BY SOLID TUMORS” (University of Virginia Patent Foundation, priority 2020, published 2023):

Assays:
[1] = system: DR5; assay: DR5 knockout (DR5-KO) versus DR5-WT TNBC cells: viability, PD-L1, S5a, ubiquitin; format: cell-based, human; details: for overall ubiquitin signal in lysates: DR5 sensitive versus DR5-KO cells (FIG. 2P)
Method: In Vitro Cell Viability Assays. Cell viability following Apo2L, lexatumumab, KMTR2, tigatuzumab, AMG-655, MD5-1, avelu-MD5, etc. treatments as indicated in the Figures either alone in combination with inhibitors (ROCK1, ERK, caspase inhibitors, etc.) or in combination with an anti-Fc reagent (For tigatuzumab, AMG-655, MD5-1, etc.) were determined using the ALAMARBLUE™ cell viability assays and MTT cell proliferation assays as per the manufacturer's protocols (ThermoFisher Scientific). Briefly, cells were treated with increasing concentration of various antibodies as indicated along with relevant positive and negative control antibodies for 6 hours, 24 hours, or 48 hours as indicated. For each cell killing assay the figures show the representative profiles from n=2-4 with different cultured confluency. Whenever used for immunoblotting, following antibodies treatment caspase-3 processing in tumor cells was monitored using selective antibodies that recognize cleaved human caspase-3 or total caspase-3 (Catalog Nos. 9661 and 9668; Cell Signaling Technology, Danvers, Massachusetts, United States of America). TRAIL-R2 receptor in oligomerization was determined using immunoblotting assays (Cell Signaling Technology Rabbit mAb, Catalog No. 8074). Cell viability was additionally examined by flow cytometry based apoptotic detection methods using 7-aminoactinomycin D (7-ADD) exclusion from live cells.
Western Blotting. Cells were cultured overnight in tissue culture-treated 6-well plates prior to treatment. After antibody treatment for 48 hours or another indicated time, cells were rinsed with PBS and then lysed with RIPA buffer supplemented with protease inhibitor cocktail (ThermoFisher Scientific). Centrifugation at 14000 rpm for 30 minutes cleared lysates and protein was quantified by PIERCE™ BCA Protein Assay Kit (ThermoFisher Scientific). Western blotting was performed using the Bio-Rad SDS-PAGE Gel system. Briefly, 30 μg of protein was resolved on 10% Bis-Tris gels and then transferred onto PVDF membrane. Membranes were blocked for one hour at room temperature in TBS+0.1% Tween (TBST) with 5% non-fat dry milk. Membranes were probed overnight at 4° C. with primary antibodies. Membranes were washed three times in TBST and then incubated with anti-rabbit or anti-mouse secondary antibodies (1/10,000 dilution, coupled to peroxidase) for 1 hour at room temperature. Membranes were then washed three times with TBST and immunocomplexes were detected with SUPERSIGNAL™ West Pico Chemiluminescent Substrate (ThermoFisher Scientific). […]
Flow cytometry. The cell surface expression of PD-L1, CD47, huDR5, muDR5, CD8, CD4, CD25 etc. was analyzed by flow cytometry. […] The data was analyzed by FCS Express (De Novo Software, Los Angeles, California, United States of America) and FlowJo. […]

[2] = system: UCD52 TNBC PDX tumors; assay: PD-L1 IHC of KMTR2 treated UCD52 TNBC PDX tumors; format: in vivo, mouse; details: KMTR2 50 μg, 4 doses; NSG mice
[3] = system: DR5-KO (MDA-MB-231) cells; assay: ApoEV isolation and PD-L1 transfer to DR5-KO cells; format: cell-based, human; details: ApoEVs from treated DR5-WT cells
Method: FIG. 12. TNF-α stabilized PD-L1 is not shuttled to ApoEVs. ApoEVs were isolated from DR5-WT MDA-MB-436 and OVCAR-3 cells after treatment with IgG1, TNF-α and lexatumumab. Isolated ApoEVs were incubated on to DR5-KO (MDA-MB-231) cells. After 24 hours surface PD-L1 of DR5-KO cells was analyze by flow cytometry. Top panel show secondary antibody control, IgG1 treatment control and basal level PD-L1 levels on MDA-MB-231 DR5 KO cells.
ApoEV isolation. 4×10^6 cells were seeded onto 3×150 mm dishes in a total volume of 45 ml of DMEM supplemented with 10% exosome-free FBS and grown for 12 hours. Media of each plate was changed with serum-free medium and incubate the cells at 37° C. for 6-12 hours, with or without various antibody treatments. For all ApoEV studies, the tissue culture media was spun at 8000×g for 15 minutes. The pellet was discarded and the supernatants (SN) were passed through 0.22 um filter. ApoEVs were isolated by the ultracentrifugation method. Collected tissue culture media was spun at 5,000×g for 10 minutes to remove contaminating cellular particles, and the resulting supernatant was spun at 80,000×g for 4 hours at 4° C. to pellet ApoEVs. ApoEV pellets were resuspended in 500 μl of serum-free medium and were used for either cellular treatments, dot blots assays and immunoblotting assays.

[4] = system: PD-L1; assay: Western blotting / flow cytometry of PD-L1 and regulators in tumor cells; format: cell-based, human; details: ovarian and TNBC tumor cells
Method: Western Blotting. Cells were cultured overnight in tissue culture-treated 6-well plates prior to treatment. After antibody treatment for 48 hours or another indicated time, cells were rinsed with PBS and then lysed with RIPA buffer supplemented with protease inhibitor cocktail (ThermoFisher Scientific). Centrifugation at 14000 rpm for 30 minutes cleared lysates and protein was quantified by PIERCE™ BCA Protein Assay Kit (ThermoFisher Scientific). Western blotting was performed using the Bio-Rad SDS-PAGE Gel system. Briefly, 30 μg of protein was resolved on 10% Bis-Tris gels and then transferred onto PVDF membrane. Membranes were blocked for one hour at room temperature in TBS+0.1% Tween (TBST) with 5% non-fat dry milk. Membranes were probed overnight at 4° C. with primary antibodies. Membranes were washed three times in TBST and then incubated with anti-rabbit or anti-mouse secondary antibodies (1/10,000 dilution, coupled to peroxidase) for 1 hour at room temperature. Membranes were then washed three times with TBST and immunocomplexes were detected with SUPERSIGNAL™ West Pico Chemiluminescent Substrate (ThermoFisher Scientific). Images were taken using a Bio-Rad Gel Doc Imager system.
(§1) Flow cytometry. The cell surface expression of PD-L1, CD47, huDR5, muDR5, CD8, CD4, CD25 etc. was analyzed by flow cytometry. Overnight grown tumors were trypsinized and suspended in FACS buffer (PBS containing 2% FBS). Single cell suspensions were then incubated with primary DR4/DR5 antibodies for 1 hour at 4° C. with gentle mixing. Following wash with FACS buffer, the cells were then incubated with fluorescently labeled anti-Rabbit antibody for 1 hour. Cells were washed and flow cytometry was performed using a BD FACSCALIBUR™ flow cytometer. The data was analyzed by FCS Express (De Novo Software, Los Angeles, California, United States of America) and FlowJo.

[5] = system: MDA-MB-436 cells; assay: Flow cytometry of surface PD-L1 on tumor cells treated with DR5 agonist antibodies (FIG. 20B); format: cell-based, human
Method: FIGS. 20A-20C. (FIG. 20A) 3 biological replicates of total PD-L1 and GAPDH from triple negative breast cancer cell (MDAMB-436) and ovarian cell (OVCAR-3) lysates treated with lexatumumab for 6 hours. (FIG. 20B) Raw mean fluorescent intensity (MFI) and % positive PD-L1 counts from the cells treated with indicated DR5 agonist antibodies. MFI values are shown on the top of solid color bars. There are multiple instances (shown on the top) where despite having lower % positive PD-L1 population, MFI values were higher after indicated DR5 agonist treatments. As an example, in MDA-MB-436 cells treated with tigatuzumab and lexatumumab, lexatumumab treated cells had higher % positive PD-L1 population (9.32 vs 11.97), however MFI was higher in tigatuzumab treated population (107.54 vs 45.87). (FIG. 20C) KMTR2 treated (50 μg, 4 doses) UCD52 TNBC PDX tumors were stained for PD-L1 using immunohistochemistry (IHC). 3 additional representative images are shown. Also see FIG. 1L.
as §1
PD-L1 surface expression analysis of tumor derived cells. The cell surface expression of PD-L1 from tumor-derived cell was analyzed by flow cytometry. Isolated cells were suspended in FACS buffer (PBS containing 1% FBS). The single cell suspension was then incubated with primary PD-L1 antibodies (1:400 dilution) for 1 hour at 4° C. with gentle mixing. […] Following 3 times wash with FACS buffer, the cells were then incubated with fluorescently labeled (alexa 488) anti-Rabbit secondary antibody for 1 hour. Cells were then washed 3-4 times with FACS buffer and flow cytometry was performed using BD FACSCALIBUR™. The data was analyzed by FCS Express (De Novo Software) and FlowJo software.

[6] = system: chi-G4S-DR5 stable 4T1 tumors; assay: Surface PD-L1 flow cytometry of cells recovered from Chi-G4S-DR5 stable 4T1 tumors; format: in vivo, mouse; details: 4 doses; flow cytometry of recovered tumors (FIGS. 5G, 23)
Text: Mechanical dissociation of tumors to obtain single-cell suspensions. Viable single cells from tumor tissues were isolated as described in Leelatian et al, 2017. Briefly, after indicated antibody treatments (4-6 doses) mice were euthanized and tumors were harvested using sterile scissors and forceps. After excision of tumor, they were minced into small pieces in sterile RPMI-1640 media using two single-edged razor blades. Small tumor pieces were passed through a 70 µm cell strainer in sterile RPMI-1640 media. A rubber plunger and syringe were used to mesh the dissociated cells through the cell strainer and media containing dissociated cells was collected onto a sterile labeled conical tube. Dissociated tumor cells were subjected to flow cytometry (FACS) analysis for PD-L1, DR5, N-cadherin, FOLR1, CD47 etc. surface expression as described under flow cytometry protocol.
PD-L1 surface expression analysis of tumor derived cells. The cell surface expression of PD-L1 from tumor-derived cell was analyzed by flow cytometry. Isolated cells were suspended in FACS buffer (PBS containing 1% FBS). […] The data was analyzed by FCS Express (De Novo Software) and FlowJo software.
Chimeric DR5 cloning and Human DR5 agonist testing studies in Balb/c animals. […] Tumors were monitored as described herein above. […]

Sequence of DR5 (O14763 56-184 limits assumed): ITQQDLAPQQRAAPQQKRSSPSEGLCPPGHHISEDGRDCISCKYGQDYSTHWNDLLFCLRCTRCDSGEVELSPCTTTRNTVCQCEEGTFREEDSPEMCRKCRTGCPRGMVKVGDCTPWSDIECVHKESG

Row | Substance | overall ubiquitin signal in lysates [1] | PD-L1 stabilization by IHC [2] | PD-L1 stabilization / surface mobilization in DR5-KO lines ([1]; DR5-KO compared to DR5-WT cells) | S5a/PSMD4 levels ([1]; MDA-MB-436 WT and DR5-KO cells) | PD-L1 in ApoEVs / shuttling of PD-L1 via ApoEVs [3] | PD-L1 and CSN5 stabilization in lysates [4] | PD-L1 mean fluorescent intensity (MFI) ([5]; MDA-MB-436 cells treated with DR5 agonist antibody (FIG. 20B)) | % positive PD-L1 population ([5]; MDA-MB-436 cells treated with DR5 agonist antibody, raw flow cytometry counts (FIG. 20B)) [%] | PD-L1 on cell surface of tumor cells [6]
1 | KMTR2: Monospecific Antibody, Human DR5 activator; VL and VH SEQ ID NOs: 7 and 8 | increased only in DR5 sensitive cell lysates | PD-L1 stabilization was also confirmed |  |  |  |  |  |  | 
2 | TNF-α |  |  | remained unchanged | stabilized PD-L1 without affecting S5a levels | did not shuttle significant amount of PD-L1 via ApoEVs | stabilized both PD-L1 and CSN5 |  |  | 
3 | lexatumumab: Monospecific Antibody, Human DR5 activator; VL and VH SEQ ID NOs: 1 and 2 | increased only in DR5 sensitive cell lysates |  |  |  |  |  | 45.87 | 11.97 | higher overall PD-L1 on cell surface
